The target of one data set is T1, butyrylcholinesterase (Rattus norvegicus, UniProt Q9JKC1).
T1 construct: Butyrylcholinesterase: rat serum; from tissue; host or cells: rat serum
Put plainly: inhibition of butyrylcholinesterase (rat serum). In kind it is biochemical. The following applies: rat serum enzyme; final concentration 4×10−5 mol/L. The procedure:
(§1) Sample processing: All samples were formulated as 10-2 mol/L solution by using 100% DMSO. 10-2 mol/L solution was used in microdetermination. 1 μL was taken to use in single tube experiment.
(§2) Solvent control: 0.4% DMSO was used in microdetermination. The inhibition ratio of the sample was obtained wherein the effect of solvent was deducted.
Butyrylcholinesterase: rat serum

In the next data set the test system is KM mice. Briefly: acute toxicities of compounds on mice. The format is in vivo. Particulars: 100 mg/kg oral. The procedure:
Sample processing: When getting samples, they were undissolved. […] The samples were suspensions. Experimental animals: KM mice, 22-29 g, half male and half female.
Experimental method: Mice were randomly divided into groups. 100 mg/kg of test compounds DC19 and DC20 were administered orally, respectively.

For the next data set, the target named is T2, acetylcholinesterase (Rattus norvegicus, UniProt P37136).
T2 construct: Acetylcholinesterase: rat cortex; from tissue; host or cells: rat cortex
T2 sequence (P37136 32-614): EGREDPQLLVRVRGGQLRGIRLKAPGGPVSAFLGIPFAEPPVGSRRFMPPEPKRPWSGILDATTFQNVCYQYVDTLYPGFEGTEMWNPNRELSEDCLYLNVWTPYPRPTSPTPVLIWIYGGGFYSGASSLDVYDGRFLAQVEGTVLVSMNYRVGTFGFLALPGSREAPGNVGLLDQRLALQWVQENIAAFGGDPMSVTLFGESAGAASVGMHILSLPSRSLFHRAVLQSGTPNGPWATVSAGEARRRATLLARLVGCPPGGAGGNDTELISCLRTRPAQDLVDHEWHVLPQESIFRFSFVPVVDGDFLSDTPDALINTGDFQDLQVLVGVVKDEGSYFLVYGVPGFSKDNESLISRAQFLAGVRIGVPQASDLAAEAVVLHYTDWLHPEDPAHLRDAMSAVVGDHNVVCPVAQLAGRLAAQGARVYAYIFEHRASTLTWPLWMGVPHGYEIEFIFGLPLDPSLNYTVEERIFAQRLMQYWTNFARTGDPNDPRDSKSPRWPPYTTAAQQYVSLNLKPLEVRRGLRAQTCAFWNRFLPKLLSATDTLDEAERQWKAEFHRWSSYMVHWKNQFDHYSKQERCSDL
Briefly: biochemical. Particulars: rat cortex enzyme; for acetylcholinesterase inhibitory activity inhibition ratio (%): final concentration 4×10−5 mol/L; for IC50: read-out: acetylcholinesterase inhibitory activity IC50 (nmol). In kind it is biochemical. As to the method:
as §1, §2
Acetylcholinesterase: rat cortex

Data set [1] deals with T3, cortex and hippocampus acetylcholinesterase of mice (Mus musculus, UniProt P21836).
T3 construct: from tissue; host or cells: mouse cortex and hippocampus homogenate
T3 sequence (P21836 32-614): T2 sequence (P37136 32-614) with I59V, T109A, S128A, T144A, S271A, D313E, A392T, V467T, Q478K, R499Q
The format is in vivo. Particulars: for Acetylcholinesterase activity (%) cortex / Acetylcholinesterase activity (%) hippocampus: 1 h, % of solvent control, Mean ± SEM. The procedure: 5% DMSO was added and shaken sufficiently to dissolve the samples. Then 1% cosolvent EL (polyoxyethylated castor oil) was added and water was used to make up the remaining volumn to obtain 10 mg/mL sample. The samples were diluted gradually to 0.3 mg/mL, 1 mg/mL and 3 mg/mL. […] The samples were administrated orally according to 0.1˜mL/10 g of volumn to weight ratio. An equal amount of 5% DMSO and 1% EL solution was administered orally to the solvent control group.
(1) Acetylcholinesterase: mouse cortex and hippocampus. 1 h after orally administrated, the mice were decapitated. After the brains were taken out, the hippocampus and cortex were quickly stripped on the ice. To the cortex was added ice-cold 75 mM PBS, and homogenated to form 30× tissue homogenate and to the hippocampus was added ice-cold 75 mM PBS and homogenated to form 40× tissue homogenate. And finally 1/10 by volumn of OMPA was added and placed on the ice to be tested.
(2) Test Method: To the samples were added a reaction system containing PBS, H2O, S-Ach and DTNB. Except for the blank tube, to the rest of the tubes were added an appropriate amount of enzyme. The reaction was carried out at room temperature for 20 minutes. SDS was added to each tube to quench the reaction. An appropriate amount of enzyme was added to the blank tube. Absorbance of each tube was determined by UV-visible spectrophotometer (OD440 nm).

These results are taken from patent US20150284331A1 (priority 2012, published 2015).

Substitutions are numbered along the chain they refer to. Like-named read-outs stand apart in the source and are kept apart here.

T1 sequence (Q9JKC1 24-597): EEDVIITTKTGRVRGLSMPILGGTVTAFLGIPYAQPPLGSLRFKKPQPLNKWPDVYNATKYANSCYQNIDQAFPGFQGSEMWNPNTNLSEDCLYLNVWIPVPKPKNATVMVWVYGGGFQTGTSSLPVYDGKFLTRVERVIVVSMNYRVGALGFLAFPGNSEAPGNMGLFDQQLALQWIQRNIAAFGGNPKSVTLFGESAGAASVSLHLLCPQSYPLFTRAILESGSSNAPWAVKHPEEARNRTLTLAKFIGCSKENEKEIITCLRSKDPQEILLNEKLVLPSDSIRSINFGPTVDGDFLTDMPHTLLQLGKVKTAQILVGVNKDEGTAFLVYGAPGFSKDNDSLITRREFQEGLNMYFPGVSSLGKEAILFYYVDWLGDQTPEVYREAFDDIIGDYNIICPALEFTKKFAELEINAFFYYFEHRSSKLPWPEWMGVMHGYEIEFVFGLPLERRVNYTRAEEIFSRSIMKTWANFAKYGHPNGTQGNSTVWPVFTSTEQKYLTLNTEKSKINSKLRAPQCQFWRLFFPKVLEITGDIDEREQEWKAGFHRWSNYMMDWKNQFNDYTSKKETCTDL

As usually defined, the IC50 is the midpoint of a concentration-inhibition curve. Consider `COc1cc2c(cc1OC)C(=O)C(CC1(F)CCN(Cc3ccccc3)CC1)C2` (stereo not drawn) [DC19, 2-((l-benzyl-4-fluoropiperidin-4-yl)methyl)-5,6-dimethoxy-2,3-dihydro-1H-inden-1-one], for which, at butyrylcholinesterase, the “butyrylcholinesterase inhibitory activity inhibition ratio (%)” value was found to be 71.58%. The response symptoms with KM mice (female KM mouse) was 30 min squint. The “time of death after administration” value in the data set with KM mice (male KM mouse) is on record as 3 h after administration, death. Further, on acetylcholinesterase, the “acetylcholinesterase inhibitory activity inhibition ratio (%)” value stood at 82.44% and the IC50 stood at 0.96 nM.
`COc1cc2c(cc1OC)C(=O)C(CC1(F)CCN(Cc3ccccc3F)CC1)C2` (stereo not drawn) [DC20, 2-((4-fluoro-1-(2-fluorobenzyl)piperidin-4-yl)methyl)-5,6-dimethoxy-2,3-dihydro-1H-inden-1-one]: in data set [1] (0.3 mg/kg oral), the “inhibition of cortex acetylcholinesterase compared with the solvent control group” value worked out at 14.67%, the “inhibition of hippocampus acetylcholinesterase compared with the solvent control group” value was 15.47%, the “Acetylcholinesterase activity (%) cortex” value is given as 85.33% and the “Acetylcholinesterase activity (%) hippocampus” value came to 84.53%. Further, the “inhibition effects on mouse cortex and hippocampus AChE compared with Donepezil” value in data set [1] (1 mg/kg of DC20 versus 10 mg/kg Donepezil) is listed as “comparable to those of 10 mg/kg of positive control drug Donepezil”. Moreover, in data set [1] (1 mg/kg oral), the “inhibition of cortex acetylcholinesterase compared with the solvent control group” value stood at 22.02%, the “inhibition of hippocampus acetylcholinesterase compared with the solvent control group” value is 19.76%, the “Acetylcholinesterase activity (%) cortex” value turned out to be 77.98% and the “Acetylcholinesterase activity (%) hippocampus” value was determined as 80.24%. In data set [1] (1 mg/kg, 3 mg/kg and 10 mg/kg oral), the “inhibition effects on mouse cortex and hippocampus acetylcholinesterase (in words)” value is “significant inhibition effects”. In addition, in data set [1] (3 mg/kg oral), the “inhibition of cortex acetylcholinesterase compared with the solvent control group” value was 42.95%, the “inhibition of hippocampus acetylcholinesterase compared with the solvent control group” value is recorded as 50.12%, the “Acetylcholinesterase activity (%) cortex” value is 57.05% and the “Acetylcholinesterase activity (%) hippocampus” value was 49.88%. Also, in data set [1] (10 mg/kg oral), the “inhibition of cortex acetylcholinesterase compared with the solvent control group” value is 66.02%, the “inhibition of hippocampus acetylcholinesterase compared with the solvent control group” value came to 65.62%, the “Acetylcholinesterase activity (%) cortex” value is listed as 33.98% and the “Acetylcholinesterase activity (%) hippocampus” value stood at 34.38%. In addition, the “overall activity compared with Donepezil” value in data set [1] (mouse cortex and hippocampus AChE, oral) was “better than that of Donepezil”. Also, the “butyrylcholinesterase inhibitory activity inhibition ratio (%)” value at butyrylcholinesterase is 71.58%. In the data set with KM mice (female KM mouse), the response symptoms is listed as 8 min, myasthenia, lacrimal. In the data set with KM mice (male KM mouse), the response symptoms was 6 min, myasthenia, reduction in and the “time of death after administration” value is listed as “secretion, immobility; 24 h,”. Besides, on acetylcholinesterase, the “acetylcholinesterase inhibitory activity inhibition ratio (%)” value was 82.04% and the IC50 came to 0.86 nM.
Take `COc1cc2c(cc1OC)C(=O)C(CC1(F)CCN(Cc3ccccc3F)C(C(=O)O)C1)C2` (stereo not drawn) [DC108, 4-((5,6-dimethoxy-1-oxo-2,3-dihydro-1H-inden-2-yl)methyl)-4-fluoro-1-(2-fluorobenzyl)piperidine-2-carboxylic acid]: at butyrylcholinesterase, the “butyrylcholinesterase inhibitory activity inhibition ratio (%)” value came out at 71.58%. Further, on acetylcholinesterase, the “acetylcholinesterase inhibitory activity inhibition ratio (%)” value is recorded as 82.49% and the IC50 was 9.96 nM.
In the same order, the values of `COc1cc2c(cc1OC)C(=O)C(CC1(F)CCN(Cc3ccccc3F)C(C)C1)C2` (stereo not drawn) [DC109, 2-((4-fluoro-1-(2-fluorobenzyl)-2-methylpiperidin-4-yl)methyl)-5,6-dimethoxy-2,3-dihydro-1H-inden-1-one] are 76.62%, 88.44% and 10.9 nM.
Turning to `COc1cc2c(cc1OC)C(=O)C(CC1(F)CCN(CCc3ccccc3)CC1)C2` (stereo not drawn) [DC110, 2-((4-fluoro-1-phenethylpiperidin-4-yl)methyl)-5,6-dimethoxy-2,3-dihydro-1H-inden-1-one], on butyrylcholinesterase, the “butyrylcholinesterase inhibitory activity inhibition ratio (%)” value amounted to 66.30%. For the same compound, at acetylcholinesterase, the “acetylcholinesterase inhibitory activity inhibition ratio (%)” value is recorded as 88.55% and the half-inhibitory concentration (IC50) was 12.3 nM.
The corresponding values for `COc1cc2c(cc1OC)C(=O)C(CC1(F)CCN(CCc3ccccc3F)CC1)C2` (stereo not drawn) [DC111, 2-((4-fluoro-1-(2-fluorophenethyl)piperidin-4-yl)methyl)-5,6-dimethoxy-2,3-dihydro-1H-inden-1-one] are 71.58%, 92.44% and 1.96 nM.
